# Results as given in patent US10905691B2, “Use of triazolo(4,5-d)pyrimidine derivatives for prevention and treatment of bacterial infection” (Universite de Liege, priority 2016, dated 2021).
# What was measured:
# [1] = test system: S. epidermidis mature biofilm; experiment: Mature biofilm (24-hour) treatment, LIVE/DEAD BacLight staining; assay type: cell-based, Staphylococcus epidermidis; conditions: 24 hr treatment of 24-hour biofilm
# Text: In another experiment we let adhere 0.5×10^8 CFU/ml S. epidermidis cells for 4 hr and let the biofilm form for additional 24 hr in presence of 0.25% glucose, at this point we treated the biofilm with several concentrations of Triafluocyl for 24 hr in TSB with 0.25% glucose and determined the viable count (FIG. 7) as well as the percentage of live cells using the BacLight bacterial viability kit (Molecular Probes).
# In the same experiment we also determined the percentage of live and dead bacteria. To do so we followed the procedure of the kit LIVE/DEAD from Molecular Probes. Briefly, the biofilm was resuspended in a solution of 0.9% NaCl and cells were stained with a mixture of SYTO9 (green fluorescence) and propidium iodide (PI) (red fluorescence) for 15 min in the dark. Stained cells were transferred in a 96-well plate and fluorescence was measured using the Enspire Spectrophotometer with excitation wavelength of 470 nm and emission spectra in the range of 490-700 nm. SYTO9 dye (green fluorescence 500-520 nm) penetrates all the cells (dead and live) and binds to DNA, while PI (red fluorescence in the range 610-630 nm) enters only in dead cells with a damaged cell membrane. When PI and SYTO9 are in the same cell the green fluorescence intensity decreases. […]
# [2] = test system: S. agalactiae (ATCC 12386); experiment: MIC determination (EUCAST, Mueller-Hinton broth); assay type: cell-based; conditions: Streptococcus agalactiae, ATCC12386
# Procedure: Further experiments were conducted using S. agalactiae (ATCC 12386), as clinically relevant Gram-positive bacterial strains in order to determine the Minimal Inhibitory Concentration (MIC) which is the minimal concentration required to prevent bacterial growth; the Minimal Bactericidal Concentration (MBC) which determines the lowest concentration at which an antimicrobial agent kill a particular microorganism and a Minimum Duration for killing 99.9% bacteria (MDK99.9) which is a tolerance metric according to the EUCAST.
# MIC determination: A single colony selected from the different strains of S. agalactiae (ATCC 12386) is resuspended and cultured in the appropriate medium overnight (O/N) in aerobic conditions (37° C. with 220 rpm shaking), next day a 1:100 inoculum in Mueller-Hinton broth (MHB) was incubated in aerobic conditions for 3 hr (OD=0.08-0.1) and an inoculum of 1:300 dilution, corresponding to 3×10^5 CFU/ml, was incubated in presence or absence of different concentrations of Triafluocyl in 1% DMSO. After O/N growth the OD of each culture was measured at 600 nm in a spectrophotometer (OD600). The MIC represents the concentration at which there is no visible growth of bacteria, i.e. ΔOD at 600 nm equal to zero (blank is the medium alone). MIC for Triafluocyl against S. agalactiae (ATCC 12386) was 40 μg/ml.
# E. faecalis (ATCC 29212) = experiment: Growth kinetics in logarithmic phase (OD600 and viable count); assay type: cell-based, Enterococcus faecalis; conditions: 30-120 min, FIG. 3
# Procedure: E. faecalis (ATCC 29212) was grown overnight in Brain heart infusion (BHI) medium, diluted 1:100 in fresh BHI, and incubated aerobically at 37° C. until bacteria growth reached a logarithmic phase (OD600=0.25-0.3).
# Increasing concentrations of Triafluocyl (Cayman Chemical, Item No. 15425) or DMSO as vehicle was then added in 5 ml of bacteria suspensions. Bacterial growth was measured after different time intervals (30-120 min) by spectrophotometry (OD600) and by counting the colony-forming units after plating appropriate culture dilutions on BHI agar plates.
# In FIG. 3 kinetics of E. faecalis growth in the presence of an increasing concentrations (5 μg/ml to 40 μg/ml) of Triafluocyl were measured by turbidity measurement (upper graph), and viable count (lower graph). Data represent medians±range (n=3).
# S. epidermidis biofilm = experiment: Biofilm formation (crystal violet, 24-well plate); assay type: cell-based, Staphylococcus epidermidis
# Procedure: To study the effect of Triafluocyl on biofilm formation, S. epidermidis in early logarithmic phase (5×10^8 CFU/ml) was plated in a 24-well plate and let to adhere at the bottom of the well for 4 hr at 37° C. in static conditions. After 4 hr incubation, planktonic bacteria were removed and adherent bacteria were washed twice in TSB. Fresh TSB medium supplemented or not with 0.25% glucose was added to the well with 5 different concentrations of Triafluocyl and incubated for 24 hours. Wells were washed 3 times with NaCl 0.9% and incubated for 1 hr at RT with Crystal Violet 1% solution in dH2O to stain the biofilm. Wells were washed 3 times with dH2O to eliminate unbound crystal violet, then 400 μl Acetic Acid 10% was added and incubated at RT for 10 min. Absorbance was measured in triplicate at 570 nm, reflecting total biomass of the biofilm (live and dead bacteria). The concentration of Triafluocyl that inhibits at least 90% biofilm formation is called minimum biofilm inhibitory concentration (MBIC). Triafluocyl MBIC for S. epidermidis is 50 μg/ml both in the presence and in the absence of glucose.
# [3] = test system: E. faecalis VRE (ATCC BAA-2365); experiment: Killing curve (CFU counting); assay type: cell-based, Enterococcus faecalis; conditions: Triafluocyl 20 μg/ml; Minocycline 10 μg/ml; FIG. 8C
# Procedure: E. faecalis VRE (ATCC BAA-2365) was grown overnight in brain heart infusion (BHI) medium, diluted 1:100 in fresh BHI, and incubated aerobically at 37° C. until bacteria growth reached a logarithmic phase (OD600=0.2-0.25).
# Triafluocyl (Cayman Chemical, Item No. 15425) (20 μg/ml), Minocycline (Sigma, 10 μg/ml) or vehicle (DMSO) was then added in 5 ml of bacteria suspensions. Bacterial growth was measured after different time intervals by counting the colony-forming units after plating appropriate culture dilutions on BHI agar plates.
structure (smiles),measurement,setting,value
"CCCSc1nc(N[C@@H]2C[C@H]2c2ccc(F)c(F)c2)c2nnn([C@@H]3C[C@H](OCCO)[C@@H](O)[C@H]3O)c2n1 [Triafluocyl, (1S,2S,3R,5S)-3-[7-[(1R,2S)-2-(3,4-difluorophenyl)cyclopropylamino]-5-(propylthio)-3H-[1,2,3]-triazolo[4,5-d]pyrimidin-3-yl]-5-(2-hydroxyethoxy)-1,2-cyclopentanediol]",percentage of live bacteria in the biofilm,[1]; 20 μg/ml,80%
same,percentage of live bacteria in the biofilm,[1]; 50 μg/ml,30%
same,MIC,[2],40 µg/mL
same,effect on bacterial growth (turbidity and viable count),E. faecalis (ATCC 29212); 10 μg/ml,able to inhibit bacterial growth
same,effect on bacterial growth (turbidity and viable count),E. faecalis (ATCC 29212); 20 μg/ml,potent bactericidal effects
same,effect on bacterial growth (turbidity and viable count),E. faecalis (ATCC 29212); 40 μg/ml,potent bactericidal effects
same,biofilm reduction,"S. epidermidis biofilm; 20 μg/ml, presence of glucose (0.25%), 24 hours",50%
same,inhibition at 5 µg/mL,"S. epidermidis biofilm; Staphylococcus epidermidis, 5 μg/ml, absence of glucose, 24 hours",50%
same,"minimum biofilm inhibitory concentration (MBIC), at least 90% inhibition of biofilm formation",S. epidermidis biofilm; absence of glucose,50 µg/mL
same,"minimum biofilm inhibitory concentration (MBIC), at least 90% inhibition of biofilm formation",S. epidermidis biofilm; presence of glucose,50 µg/mL
same,antibacterial effect on E. faecalis VRE (killing curve),[3],bactericidal effect
